The compounds below were run on HL-60 (assay: Inhibitory concentration against [Ca2+] ion increase in HL60 cell induced by natural sphingosine-1-phosphate). Conditions: Homo sapiens.
Assay type: functional, cell-based

Question: `N[C@@H](COP(=O)(O)O)[C@@H](O)c1ccccc1` was tested. Which IC50 did it give?
Answer: 179 nM

Question: Which IC50 does the source give for `CSc1ccc([C@H](O)[C@@H](N)COP(=O)(O)O)cc1` here?
Answer: 15 nM

Question: With `N[C@@H](CBr)[C@@H](O)c1ccccc1` as the compound, how does the IC50 read?
Answer: 71 nM

Question: Which IC50 does the source give for `CSc1ccc([C@H](O)[C@@H](N)CBr)cc1` here?
Answer: 18 nM

Question: How did the IC50 turn out when `CCCCCCCCCC/C=C/[C@H](O)[C@@H](N)COP(=O)(O)O` was run?
Answer: 15 nM

Question: Which IC50 does the source give for `N[C@@H](COP(=O)(O)O)[C@@H](O)c1ccc([N+](=O)[O-])cc1` here?
Answer: 56 nM

Question: How did the IC50 turn out when `N[C@@H](COP(=O)(O)O)[C@@H](O)/C=C/c1ccccc1` was run?
Answer: 37 nM

Question: How did the IC50 turn out when `CCCCCCCCCCCCC/C=C/[C@H](O)[C@@H](N)COP(=O)(O)O` was run?
Answer: 31 nM

Reference: ChEMBL document CHEMBL1141894, “Synthesis and biological properties of novel sphingosine derivatives” (Bioorg Med Chem Lett, 2005)
